# Like-named read-outs stand apart in the source and are kept apart here.
# Experiment: Solubility in buffered solutions vs pH at 37 °C (HPLC)
# Format: physicochemical
# Conditions: thermodynamic from solid, read-out: Solubility at 24 h
# Protocol: Aqueous buffers between pH 1.3 and 7.4 (13 total) were prepared and 3 mL added to about 15 mg of SJB-01 (L100149-44-1, jet-milled). These slurries were stirred on a hot-plate at 37° C. for 24 hours. Sonication and vortexting was employed within the first 2 hours of stirring to ensure thorough mixing and wetting of the solids as there was a clear tendency for them to clump and float at the liquid surface. After sonication and vortexing there was substantial solids suspended in solution (slurry) along with the solids that floated on top. At 24 hours, the samples were collected by syringe filtration of about 2 mL of solution. The first 1 mL of solution that passed through the filter was discarded and the second 0.5-1 mL of solution was used for HPLC analysis. The samples were injected into HPLC without dilution.
# SJB-01 (L100149-44-1) was weighed directly into volumetric flasks and filled to volume with ACN:water (6:4 vol.) to build a calibration curve. […] Details for the HPLC method used are given in Table 34; these follow the parameters used for previous dissolution study.
compound,measurement,setting,value
"CCNn1c(C)c(C(=O)N[C@H](c2ccccc2)C2CC2)c2cccc(F)c2c1=O [SJB-01, 2-Ethylamino-8-fluoro-3-methyl-1-oxo-1,2-dihydro-isoquinoline-4-carboxylic acid ((S)-cyclopropyl-phenyl-methyl)-amide]",solubility at 24 h,"Britton-Robinson 0.05M buffer, aqueous buffer, Britton-Robinson 0.05M, initial pH 2.21, 24 h pH 2.22, 37 °C",7.9 µg/mL
same,solubility at 24 h,"Britton-Robinson 0.05M buffer, aqueous buffer, Britton-Robinson 0.05M, initial pH 2.85, 24 h pH 2.97, 37 °C",7.4 µg/mL
same,solubility at 24 h,"Britton-Robinson 0.05M buffer, aqueous buffer, Britton-Robinson 0.05M, initial pH 4.95, 24 h pH 5.01, 37 °C",7.7 µg/mL
same,solubility at 24 h,"Citric acid/NaOH 0.05M buffer, aqueous buffer, Citric acid/NaOH 0.05M, initial pH 2.86, 24 h pH 2.88, 37 °C",8.1 µg/mL
same,solubility at 24 h,"Citric acid/NaOH 0.05M buffer, aqueous buffer, Citric acid/NaOH 0.05M, initial pH 3.82, 24 h pH 3.85, 37 °C",7.5 µg/mL
same,solubility at 24 h,"Citric acid/NaOH 0.05M buffer, pH 4.9, aqueous buffer, Citric acid/NaOH 0.05M, initial pH 4.90, 24 h pH 4.90, 37 °C",7.2 µg/mL
same,solubility at 24 h,"HCl/KCl 0.05M buffer, aqueous buffer, HCl/KCl 0.05M, initial pH 2.13, 24 h pH 2.16, 37 °C",7.5 µg/mL
same,solubility at 24 h,"HCl/KCl 0.05M buffer, pH 1.3, simulated gastric fluid, HCl/KCl 0.05M, initial pH 1.34, 24 h pH 1.30, 37 °C, jet-milled beta form",7.8 µg/mL
same,solubility at 24 h,"KH2PO4/NaOH 0.05M buffer, aqueous buffer, KH2PO4/NaOH 0.05M, initial pH 5.98, 24 h pH 6.04, 37 °C",7.1 µg/mL
same,solubility at 24 h,"KH2PO4/NaOH 0.05M buffer, aqueous buffer, KH2PO4/NaOH 0.05M, initial pH 7.46, 24 h pH 7.47, 37 °C",6.4 µg/mL
same,solubility at 24 h,"KHP/HCl 0.05M buffer, aqueous buffer, KHP/HCl 0.05M, initial pH 3.18, 24 h pH 3.14, 37 °C",9.5 µg/mL
same,solubility at 24 h,"KHP/HCl 0.05M buffer, aqueous buffer, KHP/HCl 0.05M, initial pH 3.89, 24 h pH 3.94, 37 °C",9.8 µg/mL
same,solubility at 24 h,"KHP/NaOH 0.05M buffer, aqueous buffer, KHP/NaOH 0.05M, initial pH 4.96, 24 h pH 4.99, 37 °C",8.3 µg/mL
